Assay results: ChEMBL document CHEMBL4376834, “Discovery of 4H-Chromen-4-one Derivatives as a New Class of Selective Rho Kinase (ROCK) Inhibitors, which Showed Potent Activity in ex Vivo Diabetic Retinopathy Models” (J Med Chem, 2019)

Tests used:
Aurora kinase B = Aurora kinase B (Homo sapiens, UniProt Q96GD4); test: Inhibition of recombinant full length human AURORA-B using AKRRRLSSLRA as substrate incubated for 40 mins in presence of [gamma-33P]ATP and 10 uM ATP by radiometric scintillation counting analysis
[1] = Apparent permeability in dog MDCK cells incubated for 90 mins by LC-MS analysis; type: ADME, cell-based, Canis lupus familiaris
[2] = Intrinsic clearance in human liver microsomes measured upto 45 mins in presence of NADPH by LC-MS analysis; type: ADME, Microsome; conditions: read-out: CLH
[3] = target: Cytoplasmic tyrosine-protein kinase BMX (Homo sapiens, UniProt P51813); test: Inhibition of recombinant full length human BMX using poly(Glu, Tyr) 4:1 as substrate incubated for 40 mins in presence of [gamma-33ATP] by radiometric scintillation counting analysis
CDC7/Cyclin B1 = CDC7/Cyclin B1 (Homo sapiens, UniProt O00311+P14635); test: Inhibition of recombinant full length human CDC7/CyclinB1 using Histone H1 as substrate incubated for 120 mins in presence of [gamma-33ATP] by radiometric scintillation counting analysis; type: protein-complex assay
CDK9/cyclin T1 = CDK9/cyclin T1 (Homo sapiens, UniProt P50750); test: Inhibition of recombinant full length human CDK9/cyclinT1 using KTFCGTPEYLAPE as substrate incubated for 40 mins in presence of [gamma-33ATP] by radiometric scintillation counting analysis; type: protein-complex assay
Sequence of CDK9/cyclin T1 (O60563 whole entry): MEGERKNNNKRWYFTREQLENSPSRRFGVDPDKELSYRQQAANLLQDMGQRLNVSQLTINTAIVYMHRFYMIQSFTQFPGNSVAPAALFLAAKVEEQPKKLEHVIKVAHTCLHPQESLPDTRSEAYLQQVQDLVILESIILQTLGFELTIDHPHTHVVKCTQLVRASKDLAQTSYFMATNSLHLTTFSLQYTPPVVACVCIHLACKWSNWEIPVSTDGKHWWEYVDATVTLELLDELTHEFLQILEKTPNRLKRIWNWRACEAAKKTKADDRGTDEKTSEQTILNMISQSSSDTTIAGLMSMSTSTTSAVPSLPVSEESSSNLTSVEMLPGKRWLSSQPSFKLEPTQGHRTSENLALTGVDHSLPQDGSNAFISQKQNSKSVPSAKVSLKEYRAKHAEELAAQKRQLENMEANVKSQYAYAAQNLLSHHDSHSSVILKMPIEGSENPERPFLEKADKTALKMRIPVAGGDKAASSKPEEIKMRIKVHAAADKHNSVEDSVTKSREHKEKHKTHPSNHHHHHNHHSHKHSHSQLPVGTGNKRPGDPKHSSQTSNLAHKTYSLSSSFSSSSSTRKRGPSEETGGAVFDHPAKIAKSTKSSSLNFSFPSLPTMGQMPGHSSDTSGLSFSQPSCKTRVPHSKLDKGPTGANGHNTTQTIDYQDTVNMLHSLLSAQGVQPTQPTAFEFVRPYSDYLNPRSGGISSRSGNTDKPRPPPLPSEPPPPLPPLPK
Sequence of CDK9/cyclin T1 (P50750 whole entry): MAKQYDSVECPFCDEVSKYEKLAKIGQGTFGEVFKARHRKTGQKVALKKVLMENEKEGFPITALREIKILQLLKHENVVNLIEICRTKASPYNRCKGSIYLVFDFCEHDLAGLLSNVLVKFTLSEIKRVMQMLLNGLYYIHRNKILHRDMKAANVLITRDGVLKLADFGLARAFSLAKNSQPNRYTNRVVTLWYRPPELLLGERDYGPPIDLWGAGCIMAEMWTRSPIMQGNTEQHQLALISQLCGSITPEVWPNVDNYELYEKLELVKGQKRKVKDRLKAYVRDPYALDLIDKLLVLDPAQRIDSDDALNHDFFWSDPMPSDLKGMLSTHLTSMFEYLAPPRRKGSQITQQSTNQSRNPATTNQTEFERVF

Casein kinase 2 = Casein kinase 2 (Homo sapiens, UniProt P67870+P68400+P19784+Q8NEV1); test: Inhibition of recombinant human CK2 in presence of [gamma-33ATP] by radiometric scintillation counting analysis; type: protein assay
[4] = target: Dual specificity protein kinase CLK2 (Homo sapiens, UniProt P49760); test: Inhibition of recombinant human CLK2 (138 to end residues) using YRRAAVPPSPSLSR as substrate incubated 40 mins in presence of [gamma-33ATP] by radiometric scintillation counting analysis
[5] = target: Dual specificity protein kinase CLK3 (Homo sapiens, UniProt P49761); test: Inhibition of recombinant full length human CLK3 using ERMRPRKRQGSVR as substrate incubated 40 mins in presence of [gamma-33ATP] by radiometric scintillation counting analysis
[6] = target: Protein kinase C theta type (Homo sapiens, UniProt Q04759); test: Inhibition of recombinant full length human PKCtheta using histone H1 as substrate incubated for 40 mins in presence of [gamma33P]ATP by radiometric scintillation counting analysis
[7] = target: Serine/threonine-protein kinase Nek9 (Homo sapiens, UniProt Q8TD19); test: Inhibition of recombinant human NEK9 (1 to 324 residues) using myelin basic protein as substrate measured after 40 mins in presence of [gamma33P]ATP by radiometric scintillation counting analysis
[8] = target: Serine/threonine-protein kinase 4 (Homo sapiens, UniProt Q13043); test: Inhibition of recombinant full-length human MST1 using KKSRGDYMTMQIG as substrate measured after 40 mins in presence of [gamma33P]ATP by radiometric scintillation counting analysis
Sequence of Serine/threonine-protein kinase 4 (Q13043 whole entry): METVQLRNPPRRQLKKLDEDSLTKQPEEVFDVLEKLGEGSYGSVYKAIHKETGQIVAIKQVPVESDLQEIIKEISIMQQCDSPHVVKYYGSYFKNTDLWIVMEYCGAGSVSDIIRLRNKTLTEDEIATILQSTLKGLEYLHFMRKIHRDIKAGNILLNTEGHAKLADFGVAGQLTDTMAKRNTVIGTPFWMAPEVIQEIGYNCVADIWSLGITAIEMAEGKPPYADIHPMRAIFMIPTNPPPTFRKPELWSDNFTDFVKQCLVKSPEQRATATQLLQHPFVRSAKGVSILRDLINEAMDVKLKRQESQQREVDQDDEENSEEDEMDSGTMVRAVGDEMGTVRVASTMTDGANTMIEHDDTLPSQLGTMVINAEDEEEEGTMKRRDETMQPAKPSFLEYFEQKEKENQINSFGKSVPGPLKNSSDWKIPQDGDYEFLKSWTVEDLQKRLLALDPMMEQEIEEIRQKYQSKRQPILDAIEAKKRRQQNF

[9] = target: Hepatocyte growth factor receptor (Homo sapiens, UniProt P08581, Y1230D); test: Inhibition of recombinant human MET A1209G/V1290L/Y1248D triple mutant (974 to end residues) using KKKGQEEEYVFIE as substrate incubated for 40 mins in presence of [gamma-33ATP by radiometric scintillation counting analysis
[10] = target: Tyrosine-protein kinase Fyn (Homo sapiens, UniProt P06241); test: Inhibition of recombinant full length human Fyn using […] as substrate after 40 mins in presence of [gamma-33ATP] by radiometric scintillation counting analysis
Sequence of Tyrosine-protein kinase Fyn (P06241 whole entry): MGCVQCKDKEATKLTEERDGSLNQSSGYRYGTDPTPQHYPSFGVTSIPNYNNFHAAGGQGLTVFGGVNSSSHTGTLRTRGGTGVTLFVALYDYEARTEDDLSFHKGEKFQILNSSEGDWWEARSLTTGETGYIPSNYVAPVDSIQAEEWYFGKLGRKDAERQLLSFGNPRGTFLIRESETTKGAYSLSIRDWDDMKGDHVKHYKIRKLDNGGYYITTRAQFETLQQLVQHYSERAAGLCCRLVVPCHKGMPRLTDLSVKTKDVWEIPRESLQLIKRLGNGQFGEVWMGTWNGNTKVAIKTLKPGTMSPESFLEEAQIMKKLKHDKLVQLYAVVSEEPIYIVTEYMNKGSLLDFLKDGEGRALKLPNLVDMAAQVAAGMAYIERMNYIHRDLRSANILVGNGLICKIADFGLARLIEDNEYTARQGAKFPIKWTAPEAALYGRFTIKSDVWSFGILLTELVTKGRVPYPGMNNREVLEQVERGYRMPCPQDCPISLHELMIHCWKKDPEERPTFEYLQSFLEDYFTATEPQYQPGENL

Rhodopsin kinase GRK1 = Rhodopsin kinase GRK1 (Homo sapiens, UniProt Q15835); test: Inhibition of recombinant full length human GRK1 using KKKKERLLDDRHD as substrate after 40 mins in presence of [gamma-33ATP] by radiometric scintillation counting analysis
[11] = target: Tyrosine-protein kinase JAK3 (Homo sapiens, UniProt P52333); test: Inhibition of human recombinant JAK3 (781 to end residues) using GGEEEEYFELVKK as substrate after 40 mins by [gamma-33ATP] by radiometric scintillation counting analysis
Sequence of Tyrosine-protein kinase JAK3 (P52333 whole entry): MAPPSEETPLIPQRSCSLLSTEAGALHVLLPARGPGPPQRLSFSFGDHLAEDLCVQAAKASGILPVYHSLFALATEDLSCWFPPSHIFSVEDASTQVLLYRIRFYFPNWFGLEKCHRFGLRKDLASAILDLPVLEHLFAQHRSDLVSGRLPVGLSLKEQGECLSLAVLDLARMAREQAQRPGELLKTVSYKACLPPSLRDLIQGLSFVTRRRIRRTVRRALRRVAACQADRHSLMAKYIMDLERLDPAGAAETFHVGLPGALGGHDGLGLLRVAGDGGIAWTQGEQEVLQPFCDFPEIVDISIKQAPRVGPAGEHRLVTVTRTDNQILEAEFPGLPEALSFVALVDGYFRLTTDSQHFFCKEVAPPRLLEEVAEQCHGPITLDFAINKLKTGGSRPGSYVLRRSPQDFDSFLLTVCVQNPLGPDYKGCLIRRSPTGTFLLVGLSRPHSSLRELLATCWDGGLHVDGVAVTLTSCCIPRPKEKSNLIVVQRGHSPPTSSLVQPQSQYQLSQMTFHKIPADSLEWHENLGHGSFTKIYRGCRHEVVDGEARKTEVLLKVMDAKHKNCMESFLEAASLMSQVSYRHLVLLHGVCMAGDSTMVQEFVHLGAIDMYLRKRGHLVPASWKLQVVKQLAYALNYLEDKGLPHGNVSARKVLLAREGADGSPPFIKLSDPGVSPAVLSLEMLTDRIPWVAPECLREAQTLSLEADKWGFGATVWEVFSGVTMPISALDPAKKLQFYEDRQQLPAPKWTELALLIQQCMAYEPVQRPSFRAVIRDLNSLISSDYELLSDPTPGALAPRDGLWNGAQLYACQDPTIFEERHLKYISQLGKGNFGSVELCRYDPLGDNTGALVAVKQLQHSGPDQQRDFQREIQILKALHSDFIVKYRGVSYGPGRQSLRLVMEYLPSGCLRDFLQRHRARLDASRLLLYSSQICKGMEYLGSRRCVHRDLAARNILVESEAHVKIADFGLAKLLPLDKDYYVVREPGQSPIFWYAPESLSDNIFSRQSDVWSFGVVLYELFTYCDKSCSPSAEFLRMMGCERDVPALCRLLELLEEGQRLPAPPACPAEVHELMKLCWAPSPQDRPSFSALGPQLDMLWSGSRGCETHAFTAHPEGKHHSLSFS

[12] = target: Vascular endothelial growth factor receptor 2 (Homo sapiens, UniProt P35968); test: Inhibition of human recombinant KDR (790 to end residues) using myelin basic protein as substrate after 40 mins by [gamma-33ATP] by radiometric scintillation counting analysis
[13] = Inhibition of recombinant human Plk4 S34T mutant (1 to 273 residues) using casein as substrate incubated for 40 mins in presence of [gamma33P]ATP by radiometric scintillation counting analysis
[14] = target: Ribosomal protein S6 kinase alpha-6 (Homo sapiens, UniProt Q9UK32); test: Inhibition of recombinant full length human Rsk4 using LRRASLG as substrate incubated for 40 mins in presence of [gamma33P]ATP by radiometric scintillation counting analysis
Sequence of Ribosomal protein S6 kinase alpha-6 (Q9UK32 whole entry): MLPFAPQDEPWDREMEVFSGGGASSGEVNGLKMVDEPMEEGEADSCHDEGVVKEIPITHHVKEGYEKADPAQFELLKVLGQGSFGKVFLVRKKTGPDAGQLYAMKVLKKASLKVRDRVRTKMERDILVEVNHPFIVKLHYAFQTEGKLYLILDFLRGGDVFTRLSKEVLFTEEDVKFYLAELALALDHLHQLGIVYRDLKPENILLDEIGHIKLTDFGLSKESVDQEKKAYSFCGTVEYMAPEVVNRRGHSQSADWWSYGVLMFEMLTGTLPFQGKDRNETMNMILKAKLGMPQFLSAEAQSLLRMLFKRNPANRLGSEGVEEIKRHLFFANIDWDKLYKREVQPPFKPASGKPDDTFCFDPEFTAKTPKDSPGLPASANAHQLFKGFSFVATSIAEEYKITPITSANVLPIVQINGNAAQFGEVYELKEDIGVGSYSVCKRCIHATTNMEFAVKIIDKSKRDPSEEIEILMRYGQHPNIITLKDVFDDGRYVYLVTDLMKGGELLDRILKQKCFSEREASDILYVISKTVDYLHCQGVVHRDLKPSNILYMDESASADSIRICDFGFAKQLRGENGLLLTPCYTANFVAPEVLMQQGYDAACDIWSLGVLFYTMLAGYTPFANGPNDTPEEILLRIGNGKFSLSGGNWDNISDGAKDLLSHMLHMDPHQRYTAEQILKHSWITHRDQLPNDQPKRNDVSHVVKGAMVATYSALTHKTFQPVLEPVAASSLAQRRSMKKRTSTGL

[15] = target: Proto-oncogene tyrosine-protein kinase Src (Homo sapiens, UniProt P12931, T341M); test: Inhibition of recombinant full length human SRC T341M mutant using GGEEEEYFELVKK as substrate incubated for 40 mins in presence of [gamma33P]ATP by radiometric scintillation counting analysis
Angiopoietin-1 receptor = Angiopoietin-1 receptor (Homo sapiens, UniProt Q02763, Q939H/Q940H); test: Inhibition of recombinant human TIE2 Q939H/Q940H double mutant (771 to end residues) using poly(Glu, Tyr) 4:1 as substrate incubated for 40 mins in presence of [gamma33P]ATP by radiometric scintillation counting analysis
[16] = target: Non-receptor tyrosine-protein kinase TYK2 (Homo sapiens, UniProt P29597); test: Inhibition of recombinant human TYK2 (875 to end residues) using GGMEDIYFEFMGG as substrate incubated for 40 mins in presence of [gamma33P]ATP by radiometric scintillation counting analysis
[17] = target: Serine/threonine-protein kinase ULK3 (Homo sapiens, UniProt Q6PHR2); test: Inhibition of recombinant human full length ULK3 using casein as substrate incubated for 40 mins in presence of [gamma33P]ATP by radiometric scintillation counting analysis
PI3K p110 beta/p85 alpha = PI3K p110 beta/p85 alpha (Homo sapiens, UniProt P42338); test: Inhibition of recombinant human full length PI3K p110beta/p85alpha using phosphatidylinositol-4, 5-bisphosphate as substrate incubated for 40 mins in presence of [gamma33P]ATP by radiometric scintillation counting analysis; type: protein-complex assay
[18] = target: PI3-kinase p110-alpha/p85-alpha (Homo sapiens, UniProt P42336, E542K); test: Inhibition of recombinant human full length PI3K p110alpha/p85alpha E542K mutant using phosphatidylinositol 4,5-bisphosphate as substrate incubated for 40 mins in presence of [gamma33P]ATP by radiometric scintillation counting analysis
Sequence of PI3-kinase p110-alpha/p85-alpha (Homo sapiens, UniProt P42336, E542K) (P42336 whole entry E542K, looked up): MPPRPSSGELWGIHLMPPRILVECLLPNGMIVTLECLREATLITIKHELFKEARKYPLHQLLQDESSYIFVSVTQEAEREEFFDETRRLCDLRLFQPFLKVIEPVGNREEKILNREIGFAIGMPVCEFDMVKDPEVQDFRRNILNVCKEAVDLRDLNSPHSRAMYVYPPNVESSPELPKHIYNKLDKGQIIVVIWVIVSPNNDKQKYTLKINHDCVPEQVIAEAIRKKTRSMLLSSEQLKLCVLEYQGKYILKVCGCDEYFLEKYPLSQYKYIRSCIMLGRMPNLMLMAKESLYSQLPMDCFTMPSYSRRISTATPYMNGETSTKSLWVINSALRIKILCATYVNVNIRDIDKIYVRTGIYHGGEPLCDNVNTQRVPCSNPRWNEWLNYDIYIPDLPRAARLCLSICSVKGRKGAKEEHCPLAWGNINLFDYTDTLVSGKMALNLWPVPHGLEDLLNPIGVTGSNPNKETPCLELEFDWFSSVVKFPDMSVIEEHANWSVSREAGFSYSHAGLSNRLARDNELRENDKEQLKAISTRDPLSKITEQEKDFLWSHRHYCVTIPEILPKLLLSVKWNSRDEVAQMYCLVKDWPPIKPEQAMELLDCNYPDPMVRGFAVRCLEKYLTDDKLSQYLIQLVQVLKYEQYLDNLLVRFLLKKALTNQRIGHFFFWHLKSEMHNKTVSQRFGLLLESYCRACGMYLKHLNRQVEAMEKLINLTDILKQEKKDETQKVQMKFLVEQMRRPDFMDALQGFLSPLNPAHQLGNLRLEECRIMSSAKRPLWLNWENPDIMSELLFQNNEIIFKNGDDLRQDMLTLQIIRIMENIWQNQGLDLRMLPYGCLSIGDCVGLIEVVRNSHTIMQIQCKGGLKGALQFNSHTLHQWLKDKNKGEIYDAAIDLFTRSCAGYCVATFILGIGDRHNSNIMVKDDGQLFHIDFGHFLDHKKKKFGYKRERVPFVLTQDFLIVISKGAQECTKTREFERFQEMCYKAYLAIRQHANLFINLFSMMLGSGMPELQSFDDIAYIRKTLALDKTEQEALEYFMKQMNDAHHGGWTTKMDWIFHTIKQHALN

[19] = target: PI3-kinase p110-alpha/p85-alpha (Homo sapiens, UniProt P42336, H1047R); test: Inhibition of recombinant human full length PI3K p110alpha/p85alpha H1047R mutant using phosphatidylinositol 4,5-bisphosphate as substrate incubated for 40 mins in presence of [gamma33P]ATP by radiometric scintillation counting analysis

## CN(C)c1ccc(C(=O)Nc2cccc(NC(=O)COc3ccc4c(=O)ccoc4c3)c2)cc1
Aurora kinase B
  IC50: 1.24 µM
[1]
  Papp at 1.5 h: 9.41 ×10⁻⁶ cm/s
[2]
  CLint scaled: 216 mL/min/kg
[3]
  IC50: > 10 µM
CDC7/Cyclin B1
  IC50: > 10 µM
CDK9/cyclin T1
  IC50: > 10 µM
Casein kinase 2
  IC50: > 10 µM
[4]
  IC50: > 10 µM
[5]
  IC50: > 10 µM
[6]
  IC50: > 10 µM
[7]
  IC50: > 10 µM
[8]
  IC50: > 10 µM
[9]
  IC50: > 10 µM
[10]
  IC50: > 10 µM
Rhodopsin kinase GRK1
  IC50: > 10 µM
[11]
  IC50: > 10 µM
[12]
  IC50: > 10 µM
[13]
  IC50: > 10 µM
[14]
  IC50: > 10 µM
[15]
  IC50: > 10 µM
Angiopoietin-1 receptor
  IC50: > 10 µM
[16]
  IC50: > 10 µM
[17]
  IC50: > 10 µM
PI3K p110 beta/p85 alpha
  IC50: > 10 µM
[18]
  IC50: > 10 µM
[19]
  IC50: > 10 µM
